Measured values published in patent publication US20040077654A1, “Aryl piperidine and piperazine derivatives as inducers of ldl-receptor expression” (priority 2003, published 2004).
Read-outs that look alike come from different tables or passages of the source.

Key:
LDL-r promoter = LDL-r promoter luciferase reporter gene assay in stably transfected HepG2 cells; format: cell-based, human; conditions: HepG2 cells with LDL-r promoter/luciferase construct, 24 hours incubation in RPMI with 2% lipoprotein-deficient serum, induction of luciferase activity, read-out: In vitro (IC50)
Procedure: The ability of the compounds of the invention to induce LDL-r expression by human hepatocytes in vitro is determined using a human hepatocarcinoma cell line, Hep G2, as a model system. A reporter gene assay using the LDL-R promotor in front of the Luciferase reporter gene is used as a primary screen.
HepG2 cells, stably transfected with a construct comprising the LDL-r promoter and the luciferase reporter gene, were seeded at 50.000 cells/well in 96 well plates. After 1 day, cells were incubated with compounds for 24 hours in RPMI medium containing 2% of lipoprotein-deficient serum. Compounds were tested from 10^−6M to 10^−9M. Cell lysates were prepared and the luciferase activity was measured by the luciferase assay system (Promega). Induction of luciferase activity was calculated taking untreated cells as control and ED50 of each compounds was determinated compared to the ED50 of an internal standart.

| EC50 (LDL-r promoter) | EC50 (LDL-r promoter; Homo sapiens) | melting point | Compound |
| --- | --- | --- | --- |
|  |  | 227 °C | COc1cc(C)ccc1N1CCN(CCCCNC(=O)c2ccc(NC(=O)c3ccc(Cl)cc3)cc2)CC1.Cl (hydrate or solvate) |
|  |  | 270 °C | O=C(NCCCCN1CCC(c2ccc3ccccc3c2)CC1)c1ccc(NC(=O)c2ccc(Cl)cc2)cc1 [Example 9, 4-(4-chloro-benzoylamino)-N-[4-(4-naphthalen-2-yl-piperidin-1-yl]-butyl}-benzamide] |
|  |  | 174 to 175 °C | CCOc1cc(C)ccc1C1CCN(CCCCNC(=O)c2ccc3c(c2)cc(-c2ccc(Cl)cc2)n3C)CC1 [Example 28, 2-(4-Chloro-phenyl)-1-methyl-1H-indole-5-carboxylic Acid {4-[4-(2-ethoxy-4-methyl-phenyl)-piperidin-1-yl]-butyl}-amide] |
|  |  | 264 °C | O=C(NCCCCN1CCC(c2cccc3ccccc23)CC1)c1ccc(NC(=O)c2ccc(Cl)cc2)cc1 [Example 11, 4-(4-chloro-benzoylamino)-N-[4-(4-naphthalen-1-yl-piperidin-1-yl]-butyl}-benzamide] |
|  |  | 242 °C | CCOc1cc(C(C)C)ccc1C1CCN(CCCCNC(=O)c2ccc(NC(=O)c3ccc(Cl)cc3)cc2)CC1 [Example 6, 4-(4-chloro-benzoylamino)-N-{4-[4-(2-ethoxy-4-isopropyl-phenyl)-piperidin-1-yl]-butyl}-benzamide] |
|  |  | 191 to 192 °C | CSc1ccccc1C1CCN(CCCCNC(=O)c2ccc(-c3ccc(C(F)(F)F)cc3)cc2)CC1 [Example 13, 4′-Trifluoromethyl-biphenyl-4-carboxylic acid {4[4-(2-methylsulfanyl-phenyl)-piperidin-1-yl]-butyl}-amide] |
|  |  | 241 °C | COc1cc(C(C)C)ccc1C1CCN(CCCCNC(=O)c2ccc(NC(=O)c3ccc(Cl)cc3)cc2)CC1 [Example 5, 4-(4-chloro-benzoylamino)-N-{4-[4-(4-isopropyl-2-methoxy-phenyl)-piperidin-1-yl]-butyl}-benzamide] |
|  |  | 250 °C | CCOc1cc(CC)ccc1C1CCN(CCCCNC(=O)c2ccc(NC(=O)c3ccc(Cl)cc3)cc2)CC1 [Example 3, 4-(4-chloro-benzoylamino)-N-{4-[4-(2-ethoxy-4-ethyl-phenyl)-piperidin-1-yl]-butyl}-benzamide] |
|  |  | 238 °C | COc1ccc(C2CCN(CCCCNC(=O)c3ccc(NC(=O)c4ccc(Cl)cc4)cc3)CC2)c(OC)c1.Cl |
|  |  | 264 °C | O=C(NCCCCN1CCC(c2csc3ccccc23)CC1)c1ccc(-c2ccc(C(F)(F)F)cc2)cc1 [Example 16, 4′-Trifluoromethyl-biphenyl-4-carboxylic acid [4-(4-benzo[b]thiophen-3-yl-piperidin-1-yl)-butyl]-amide] |
|  |  | 238 to 248 °C | O=C(NCCCCN1CCC(c2ccc3c(c2)OCO3)CC1)c1ccc(NC(=O)c2ccc(Cl)cc2)cc1 [Example 8, 4-(4-chloro-benzoylamino)-N-[4-(4-benzo[1,3]dioxol-5-yl-piperidin-1-yl]-butyl}-benzamide] |
|  |  | 145 to 158 °C | CCOc1cc(C)ccc1C1CCN(CCCCNC(=O)c2ccc3oc(-c4ccc(Cl)cc4)cc3c2)CC1 [Example 30, 2-(4-Chloro-phenyl)-benzofuran-5-carboxylic acid {4-[4-(2-ethoxy-4-methylphenyl)-piperidin-1-yl]-butyl}-amide] |
|  |  | 254 °C | CCOc1cc(C)ccc1C1CCN(CCCCNC(=O)c2ccc(NC(=O)c3ccc(Cl)cc3)cc2)CC1 [Example 2, 4-(4-chloro-benzoylamino)-N-{4-[4-(2-ethoxy-4-methyl-phenyl)-piperidin-1-yl]-butyl}-benzamide] |
|  |  | 235 °C | CCc1ccc(C2CCN(CCCCNC(=O)c3ccc(NC(=O)c4ccc(Cl)cc4)cc3)CC2)c(OC)c1 [Example 4, 4-(4-chloro-benzoylamino)-N-{4-[4-(4-ethyl-2-methoxy-phenyl)-piperidin-1-yl]-butyl}-benzamide] |
|  |  | 285 °C | O=C(NCCCCN1CCC(c2ccc3c(c2)CCCC3)CC1)c1ccc(NC(=O)c2ccc(Cl)cc2)cc1 [Example 10, 4-(4-chloro-benzoylamino)-N-{4-[4-(5,6,7,8-tetrahydro-naphthalen-2-yl)-piperidin-1-yl]-butyl}-benzamide] |
|  |  | 180 to 182 °C | CCOc1cc(C)ccc1C1CCN(CCCCNC(=O)c2ccc(OCc3ccc(C(F)(F)F)cc3)cc2)CC1 [Example 34, N-{4-[4-(2-Ethoxy-4-methyl-phenyl)-piperidin-1-yl]-butyl}4-(4-trifluoromethyl-benzyloxy)-benzamide] |
| 20 nM |  |  | O=C(NCCCCN1CCC(c2ccc3c(c2OCC2CC2)CCCC3)CC1)c1ccc2oc(-c3ccc(Cl)c(Cl)c3)cc2c1 [Example 31, 2-(3,4-Dichloro-phenyl)-benzofuran-5-carboxylic acid {4-[4-(1-cyclopropylmethoxy-5,6,7,8-tetrahydro-naphtalen-2-yl)-piperidin-1-yl]-butyl}-amide] |

Second part, the molecule before the results:

| Compound | EC50 (LDL-r promoter) | EC50 (LDL-r promoter; Homo sapiens) | melting point |
| --- | --- | --- | --- |
| O=C(NCCCCN1CCC(c2ccc3c(c2OCC2CC2)CCCC3)CC1)c1ccc2oc(-c3ccc(C(F)(F)F)nc3)cc2c1 [Example 32, 2-(6-Trifluoromethyl-pyridin-3-yl)-benzofuran-5-carboxylic acid {4-[4-(1-cyclopropylmethoxy-5,6,7,8-tetrahydronaphtalen-2-yl)-piperidin-1-yl]-butyl}-amide] | 13 nM |  |  |
| CCOc1cc(C)ccc1N(C1CCN(CCCCNC(=O)c2ccc(-c3ccc(C(F)(F)F)cc3)cc2)CC1)S(=O)(=O)c1ccccc1 [Example 20, 4′-Trifluoromethyl-biphenyl-4-carboxylic Acid (4-{4-[benzenesulfonyl-(2-ethoxy-4-methyl-phenyl)-amino]-piperidin-1-yl}butyl)-amide] |  | 117 nM | 110 °C |
| COc1cc(C(C)C)ccc1C1CCN(CCCCNC(=O)c2sc(-c3ccc(C(F)(F)F)cc3)nc2C)CC1 [Example 27, 4-Methyl-2-(4-trifluoromethyl-phenyl)-thiazole-5-carboxylic acid {4-[4-(4-isopropyl-2-methoxy-phenyl)-piperidin-1-yl]-butyl}-amide] |  |  | 170 °C |
| CCOc1cc(C)ccc1C1CCN(CCCCNC(=O)c2ccc3oc(-c4ccc(C(F)(F)F)cc4)cc3c2)CC1 [Example 29, 2-(4-Trifluoromethyl-phenyl)-benzofuran-5-carboxylic Acid {4-[4-(2-ethoxy-4-methyl-phenyl)-piperidin-1-yl]-butyl}-amide] |  |  | 200 °C |
| Cc1cc(C2CCN(CCCCNC(=O)c3ccc(-c4ccc(C(F)(F)F)cc4)cc3)CC2)c(C)cc1OCc1ccccn1 [Example 7] | 4 nM |  |  |
| COc1c(C2CCN(CCCCOc3ccc(-c4ccc(C#N)cc4)cc3)CC2)ccc2ccccc12 [Example 26, 4′-{4-[4-(1-Methoxy-naphtalen-2-yl)-piperidin-1-yl]-butoxy}-biphenyl-4-carbonitrile] | 1 nM |  |  |
| CCOc1cc(C)ccc1C1CCN(CCCCC(=O)Nc2ccc(-c3ccc(C(F)(F)F)cc3)cc2)CC1 [Example 24, 5-[4-(2-Ethoxy-4-methyl-phenyl)-piperidin-1-yl]-pentanoic acid (4′-trifluoromethyl-biphenyl-4-yl)-amide] |  |  | 178 °C |
| Cn1cc(C2CCN(CCCCNC(=O)c3ccc(-c4ccc(C(F)(F)F)cc4)cc3)CC2)c2ccccc21 [Example 14, 4′-Trifluoromethyl-biphenyl-4-carboxylic acid {4-[4-(1−methyl-1H-indol-3-yl)-piperidin-1-yl]-butyl}-amide] |  |  | 205 to 206 °C |
| Cn1cc(C2CCN(CCCCNC(=O)c3ccc(-c4ccc(C#N)cc4)cc3)CC2)c2ccccc21 [Example 40, 4′-Cyano-biphenyl-4-carboxylic acid {4-[4-(1-methyl-1H-indol-3-yl)-piperidin-1-yl]-butyl}-amide] |  | 10 nM | 180 °C |
| CCOc1ccc(CC2CCN(CCCCNC(=O)c3ccc(-c4ccc(C(F)(F)F)cc4)cc3)CC2)c(OCC)c1 [Example 38, 4′-trifluoromethyl-biphenyl-4-carboxylic acid {4-[4-(2,4-diethoxy-benzyl)-piperidin-1-yl]-butyl}amide] |  |  | 136 to 137 °C |
| CCOc1cc(C)ccc1C1CCN(CCCCNC(=O)c2ccc(C=Cc3ccc(C(F)(F)F)cc3)cc2)CC1 [Example 33, N-{4-[4-(2-Ethoxy-4-methyl-phenyl)-piperidin-1-yl]-butyl}-4-[2-(4-trifluoromethylphenyl)-vinyl]-benzamide] |  | 30 nM | 210 °C |
| CCOc1cc(C)ccc1C1CCN(CCCCNS(=O)(=O)c2ccc(-c3ccc(C(F)(F)F)cc3)cc2)CC1.Cl |  |  | 188 to 190 °C |
| CCOc1cc(C)ccc1NC1CCN(CCCCNC(=O)c2ccc(-c3ccc(C(F)(F)F)cc3)cc2)CC1 [Example 19, 4′-Trifluoromethyl-biphenyl-4-carboxylic acid {4-[4-(2-ethoxy-4-methyl-phenylamino)-piperidin-1-yl]-butyl}-amide] |  |  | 162 °C |
